The test system of the first assay is HUVEC cell. The experiment in a line: Cell proliferation inhibition assay (SRB) on HUVEC cells highly expressing VEGFR. Conditions: Homo sapiens, 72 h, read-out: IC50 (VEGFR/HUVEC).
Excerpt: The cellular assay described here is used to test anti-angiogenesis and proliferation inhibition activity and effect of the compounds through VEGFR on the cancer cells in vitro. The effect and activity is represented by the IC50 value that kills the cancer cells. The general procedures of the assay are as follows: The Homo sapiens cells that highly expressing VEGFR were chosen and seeded to 96-well cell culture plate at a suitable concentration (e.g., 5000 cells/mL medium). […] Then, the cell culture medium was replaced by fresh one with testing compounds added in it at serial concentrations (general 6 or 7 concentrations). Then the cells were put back to the incubator and cultured for 72 hours continuously. 72 hours later, the treated compounds were assayed for their proliferation status by using Sulforhodamine B (SRB) method. IC50 of compounds on tested cells was calculated by using data of inhibition rate of serial concentrations of the testing compounds.
The following protocol is used to assay the cell toxicity (anti-proliferation activity, which is expressed as IC50 value) of testing compounds of the invention on HUVEC cell: • 1. HUVEC cells were cultured with growth media (DMEM/F12, supplemented with 10% FBS) in 100 mm corning culture plate at 37° C., 5% CO2 till confluency. • 2. HUVEC cells were washed with cold PBS solution, then the cells were harvested by trypsinization and seeded in corning 96-well cell culture plates at a concentration of 50,000 cells/ml, 6 empty wells were left on each plate as plate background. • 3. The cells were cultured in 96-well plates at 37° C., 5% CO2, till 85% confluency. • 4. The compound stock solution was prepared by using DMSO to solve candidate compounds to a concentration of 20 mM. Then DMSO was used to dilute the stock solution to a serial concentration to prepare testing compound solution samples (e.g., 2 mM, 1 mM, 0.2 mM, 20 μM, 2 μM, 0.2 μM). • 5. Cell culture medium (DMEM/F12+10% FBS) was used to dilute the compound solution prepared previously. […] Background absorbance was measured in wells incubated only with growth medium. • 11. […]
As for `Cc1c(/C=C2\C(=O)Nc3cccc(-c4c(F)cccc4F)c32)[nH]c2c1C(=O)N(C[C@@H](O)CN1CCOCC1)CC2` [Example 20, (S,Z)-2-[4-(2,6-Difluoro-phenyl)-2-oxo-1,2-dihydro-indol-3-ylidenemethyl]-5-(2-hydroxy-3-morpholin-4-yl-propyl)-3-methyl-1,5,6,7-tetrahydro-pyrrolo[3,2-c]pyridin-4-one], the IC50 worked out at 10 nM.
Take `Cc1c(/C=C2\C(=O)Nc3cccc(-c4cccc(F)c4F)c32)[nH]c2c1C(=O)N(C[C@H](O)CN1CCOCC1)CC2` [Example 3, 2-[(Z)-4-(2,3-Difluoro-phenyl)-2-oxo-1,2-dihydro-indol-3-ylidenemethyl]-5-[(R)-2-hydroxy-3-morpholin-4-yl-propyl]-3-methyl-1,5,6,7-tetrahydro-pyrrolo[3,2-c]pyridin-4-one]: the IC50 was determined as 840 nM.
Same read-out and setting: the same measure for `Cc1c(/C=C2\C(=O)Nc3ccc(Cl)cc32)[nH]c2c1C(=O)N(C[C@H](O)CN1CCOCC1)CC2` [Example 2, (R,Z)-2-(5-Chloro-2-oxo-1,2-dihydro-indol-3-ylidenemethyl)-5-(2-hydroxy-3-morpholin-4-yl-propyl)-3-methyl-1,5,6,7-tetrahydro-pyrrolo[3,2-c]pyridin-4-one]: 2400 nM.

For the next assay, the target named is recombinant human VEGF-R2 (Homo sapiens, UniProt P35968). The experiment in a line: VEGF-R2 kinase assay (ELISA, DELFIA time-resolved fluorescence).
Sequence of recombinant human VEGF-R2 (P35968 789-1356 limits assumed): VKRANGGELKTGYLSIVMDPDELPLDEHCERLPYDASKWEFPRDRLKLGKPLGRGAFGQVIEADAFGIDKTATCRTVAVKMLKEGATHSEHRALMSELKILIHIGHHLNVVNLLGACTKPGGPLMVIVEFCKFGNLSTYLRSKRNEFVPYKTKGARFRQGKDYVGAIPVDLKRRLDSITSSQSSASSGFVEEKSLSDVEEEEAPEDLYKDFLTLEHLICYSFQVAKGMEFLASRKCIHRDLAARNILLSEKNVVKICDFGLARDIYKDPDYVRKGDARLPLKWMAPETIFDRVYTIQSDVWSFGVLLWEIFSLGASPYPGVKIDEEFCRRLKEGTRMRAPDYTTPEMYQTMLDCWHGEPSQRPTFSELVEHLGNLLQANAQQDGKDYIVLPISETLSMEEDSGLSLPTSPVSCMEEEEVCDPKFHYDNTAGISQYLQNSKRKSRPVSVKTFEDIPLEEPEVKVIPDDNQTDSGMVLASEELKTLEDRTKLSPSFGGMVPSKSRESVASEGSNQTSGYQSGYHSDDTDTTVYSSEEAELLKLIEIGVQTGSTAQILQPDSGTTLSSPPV
Settings: not given
With `Cc1c(/C=C2\C(=O)Nc3cc(NC(=O)C(C)(C)O)c(F)cc32)[nH]c2c1C(=O)N(C[C@H](O)CN1CCOCC1)CC2` [Example 17, (R,Z)-N-{5-Fluoro-3-[5-(2-hydroxy-3-morpholin-4-yl-propyl)-3-methyl-4-oxo-4,5,6,7-tetrahydro-1H-pyrrolo[3,2-c]pyridin-2-ylmethylene]-2-oxo-2,3-dihydro-1H-indol-6-yl}-2-hydroxy-2-methyl-propionamide], the IC50 worked out at 4 nM.
The same measure, in the same setting: the same measure for `COCC(=O)Nc1cc2c(cc1F)/C(=C/c1[nH]c3c(c1C)C(=O)N(C[C@H](O)CN1CCOCC1)CC3)C(=O)N2` [Example 16, (R,Z)-N-{5-Fluoro-3-[5-(2-hydroxy-3-morpholin-4-yl-propyl)-3-methyl-4-oxo-4,5,6,7-tetrahydro-1H-pyrrolo[3,2-c]pyridin-2-ylmethylene]-2-oxo-2,3-dihydro-1H-indol-6-yl}-2-methoxy-acetamide]: 110 nM; for `COCC(=O)Nc1cc2c(cc1F)/C(=C/c1[nH]c3c(c1C)C(=O)N(C[C@@H](O)CN1CCOCC1)CC3)C(=O)N2` [Example 13, (S,Z)-N-{5-Fluoro-3-[5-(2-hydroxy-3-morpholin-4-yl-propyl)-3-methyl-4-oxo-4,5,6,7-tetrahydro-1H-pyrrolo[3,2-c]pyridin-2-ylmethylene]-2-oxo-2,3-dihydro-1H-indol-6-yl}-2-methoxy-acetamide]: 130 nM; for `Cc1c(/C=C2\C(=O)Nc3ccc(Br)cc32)[nH]c2c1C(=O)N(C[C@H](O)CN1CCOCC1)CC2` [Example 4, (R,Z)-2-(5-Bromo-2-oxo-1,2-dihydro-indol-3-ylidenemethyl)-5-(2-hydroxy-3-morpholin-4-yl-propyl)-3-methyl-1,5,6,7-tetrahydro-pyrrolo[3,2-c]pyridin-4-one]: 998 nM.
The same measure, in the same setting: the same measure for `Cc1c(/C=C2\C(=O)Nc3cc(NC(=O)C(C)(C)O)c(F)cc32)[nH]c2c1C(=O)N(C[C@@H](O)CN1CCOCC1)CC2` [Example 11, (S,Z)-N-{5-Fluoro-3[5-(2-hydroxy-3-morpholin-4-yl-propyl)-3-methyl-4-oxo-4,5,6,7-tetrahydro-1H-pyrrolo[3,2-c]pyridin-2-ylmethylene]-2-oxo-2,3-dihydro-1H-indol-6-yl}-2-hydroxy-2-methyl-propionamide]: 3 nM.

The record behind these values is patent US8299069B2, “2-(2-oxoindoline-3-ylidene)methyl-5-(2-hydroxy-3-morpholin-4-yl-propyl)-6,7-dihydro-1H-pyrrol[3,2-C]pyridine-4(5H)-one compounds and use as protein kinase inhibitors” (Jiangsu Hengrui Medicine Co., Ltd., priority 2007, dated 2012).
